{
  "source": "paper PMC6327040",
  "about": "“A novel scaffold for EGFR inhibition: Introducing N-(3-(3-phenylureido)quinoxalin-6-yl) acrylamide derivatives” (Scientific Reports, 2019)",
  "key": {"EGFRL858R/T790M": {"biological_target": "EGFRL858R/T790M (Homo sapiens, UniProt P00533, L858R/T790M)", "sequence (P00533 25-1210 T790M/L858R)": "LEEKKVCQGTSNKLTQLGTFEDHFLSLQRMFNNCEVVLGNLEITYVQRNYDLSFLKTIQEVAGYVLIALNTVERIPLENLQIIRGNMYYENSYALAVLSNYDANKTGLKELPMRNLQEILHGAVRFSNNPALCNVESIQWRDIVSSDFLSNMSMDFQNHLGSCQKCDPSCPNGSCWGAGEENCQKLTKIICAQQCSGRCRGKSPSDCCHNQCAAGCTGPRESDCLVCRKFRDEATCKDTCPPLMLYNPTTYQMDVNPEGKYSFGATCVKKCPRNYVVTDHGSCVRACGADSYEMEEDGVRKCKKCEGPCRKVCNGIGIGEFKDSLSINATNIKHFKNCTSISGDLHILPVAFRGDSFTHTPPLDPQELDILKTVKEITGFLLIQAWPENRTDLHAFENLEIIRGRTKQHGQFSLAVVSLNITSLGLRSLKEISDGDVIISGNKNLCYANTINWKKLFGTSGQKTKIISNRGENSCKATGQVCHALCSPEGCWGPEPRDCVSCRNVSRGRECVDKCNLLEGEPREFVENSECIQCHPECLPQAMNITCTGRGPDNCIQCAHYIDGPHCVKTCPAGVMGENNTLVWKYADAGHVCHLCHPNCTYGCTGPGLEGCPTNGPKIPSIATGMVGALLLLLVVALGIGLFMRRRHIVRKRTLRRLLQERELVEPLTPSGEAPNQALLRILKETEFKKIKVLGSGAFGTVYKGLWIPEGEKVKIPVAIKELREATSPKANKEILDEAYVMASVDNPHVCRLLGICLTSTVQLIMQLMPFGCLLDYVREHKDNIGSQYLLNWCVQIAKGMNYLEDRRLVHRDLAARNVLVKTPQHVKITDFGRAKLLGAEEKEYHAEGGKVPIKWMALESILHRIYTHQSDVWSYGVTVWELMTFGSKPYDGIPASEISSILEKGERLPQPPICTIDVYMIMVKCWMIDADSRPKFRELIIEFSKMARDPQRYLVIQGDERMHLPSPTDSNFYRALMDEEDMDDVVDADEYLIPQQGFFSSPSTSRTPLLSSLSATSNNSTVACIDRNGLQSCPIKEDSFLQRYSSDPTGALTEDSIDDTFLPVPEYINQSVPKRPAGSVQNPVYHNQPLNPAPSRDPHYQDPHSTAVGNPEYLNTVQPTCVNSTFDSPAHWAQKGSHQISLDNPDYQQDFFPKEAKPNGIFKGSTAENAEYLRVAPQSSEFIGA", "assay": "HTRF KinEASE-TK biochemical assay (TR-FRET), EGFR-L858R/T790M", "protocol": "(§2) An artificial substrate peptide (TK-substrate from Cisbio) was phosphorylated by EGFR. After completion of the reaction (reaction times: 25 min for wild-type, 15 min for L858R, 20 min for T790M/L858R), the reaction was stopped by addition of a buffer containing EDTA as well as, an anti-phosphotyrosine antibody labeled with europium cryptate and streptavidin labeled with the fluorophore XL665. FRET between europium cryptate and XL665 was measured after an additional hour of incubation to quantify the phosphorylation of the substrate peptide. […] Kinase and inhibitor were preincubated for 30 min (EGFR-wt) and 1 h (EGFR-L858R and EGFR-L858R/T790M) before the reaction was started by addition of ATP and substrate peptide. An EnVision multimode plate reader (Perkin Elmer) was used to measure the fluorescence of the samples at 620 nm (Eu-labeled antibody) and 665 nm (XL665 labeled streptavidin) 50 μs after excitation at 320 nm. The quotient of both intensities for reactions made with eight different inhibitor concentrations was then analyzed using the Quattro Software Suite for IC50-determination. Each reaction was performed in duplicate, and at least three independent determinations of each IC50 were made."}, "CXF DIFI": {"system": "CXF DIFI", "assay": "PD tumor cell line growth inhibition", "format": "cell-based", "details": "Homo sapiens, Colon, EGFRdel-exon19 expressed, read-out: % inhibition (cellular growth inhibition related to negative control)", "experimental": "(§1) Based on this premise, the inhibitory activity of compounds 7a-m towards a patient-derived tumor cell panel[49] was evaluated, using a single screening concentration of 10 μM. […] In fact, it is worth mentioning that, although the data observed in a cellular assay have no direct correlation to EGFR enzymatic tests, this phenomenon is not unusual and is related to the nature of the assays itself. In enzymatic assays there is no influence of membrane permeability issues, while in cell viability assays compounds must penetrate the cell membrane and resist the cellular environment for long enough for the ligand-receptor interaction to occur and to trigger the biological activity."}, "CXF HCT116": {"system": "CXF HCT116", "assay": "PD tumor cell line growth inhibition", "format": "cell-based", "details": "Homo sapiens, HCT-116, Colon, read-out: % inhibition (cellular growth inhibition related to negative control)", "experimental": "as §1"}, "CXF SW620": {"system": "CXF SW620", "assay": "PD tumor cell line growth inhibition", "format": "cell-based", "details": "Homo sapiens, SW-620, Colon, read-out: % inhibition (cellular growth inhibition related to negative control)", "experimental": "as §1"}, "LXFL H460": {"system": "LXFL H460", "assay": "PD tumor cell line growth inhibition", "format": "cell-based", "details": "Homo sapiens, NCI-H460, Lung, read-out: % inhibition (cellular growth inhibition related to negative control)", "experimental": "as §1"}, "PAXF 1657l": {"system": "PAXF 1657l", "assay": "PD tumor cell line growth inhibition", "format": "cell-based", "details": "Pancreas, read-out: % inhibition (cellular growth inhibition related to negative control)", "experimental": "as §1"}, "CNXF A172": {"system": "CNXF A172", "assay": "PD tumor cell line growth inhibition", "format": "cell-based", "details": "Homo sapiens, A 172, Glioblastoma, read-out: % inhibition (cellular growth inhibition related to negative control)", "experimental": "as §1"}, "SXF1301L": {"system": "SXF1301L", "assay": "PD tumor cell line growth inhibition", "format": "cell-based", "details": "Sarcoma, read-out: % inhibition (cellular growth inhibition related to negative control)", "experimental": "as §1"}, "LXFA 629L": {"system": "LXFA 629L", "assay": "PD tumor cell line growth inhibition", "format": "cell-based", "details": "Lung, read-out: % inhibition (cellular growth inhibition related to negative control)", "experimental": "as §1"}, "PRXF DU145": {"system": "PRXF DU145", "assay": "PD tumor cell line growth inhibition", "format": "cell-based", "details": "Homo sapiens, DU-145, Prostate, read-out: % inhibition (cellular growth inhibition related to negative control)", "experimental": "as §1"}, "RXF 786-O": {"system": "RXF 786-O", "assay": "PD tumor cell line growth inhibition", "format": "cell-based", "details": "Homo sapiens, 786-0, Kidney, read-out: % inhibition (cellular growth inhibition related to negative control)", "experimental": "as §1"}, "MAXF 401NL": {"system": "MAXF 401NL", "assay": "PD tumor cell line growth inhibition", "format": "cell-based", "details": "Breast, read-out: % inhibition (cellular growth inhibition related to negative control)", "experimental": "as §1"}, "UXF 1138L": {"system": "UXF 1138L", "assay": "PD tumor cell line growth inhibition", "format": "cell-based", "details": "Uterus, read-out: % inhibition (cellular growth inhibition related to negative control)", "experimental": "as §1"}, "MEXF 1539L": {"system": "MEXF 1539L", "assay": "PD tumor cell line growth inhibition", "format": "cell-based", "details": "Melanoma, read-out: % inhibition (cellular growth inhibition related to negative control)", "experimental": "as §1"}, "LXFA NCI-H1975": {"system": "LXFA NCI-H1975", "assay": "PD tumor cell line growth inhibition", "format": "cell-based", "details": "Homo sapiens, Lung, read-out: % inhibition (cellular growth inhibition related to negative control)", "experimental": "as §1"}, "LIXF 575L": {"system": "LIXF 575L", "assay": "PD tumor cell line growth inhibition", "format": "cell-based", "details": "Liver, read-out: % inhibition (cellular growth inhibition related to negative control)", "experimental": "as §1"}, "LXFA PC9": {"system": "LXFA PC9", "assay": "PD tumor cell line growth inhibition", "format": "cell-based", "details": "Lung, EGFRdel-exon19 expressed, read-out: % inhibition (cellular growth inhibition related to negative control)", "experimental": "as §1"}, "MAXF MDA231": {"system": "MAXF MDA231", "assay": "PD tumor cell line growth inhibition", "format": "cell-based", "details": "Homo sapiens, MDA-MB-231, Breast, read-out: % inhibition (cellular growth inhibition related to negative control)", "experimental": "as §1"}, "MAXF MCF7": {"system": "MAXF MCF7", "assay": "PD tumor cell line growth inhibition", "format": "cell-based", "details": "Homo sapiens, Breast, read-out: % inhibition (cellular growth inhibition related to negative control)", "experimental": "as §1"}, "MEXF 1737l": {"system": "MEXF 1737l", "assay": "PD tumor cell line growth inhibition", "format": "cell-based", "details": "Melanoma, read-out: % inhibition (cellular growth inhibition related to negative control)", "experimental": "as §1"}, "BXF 1218L": {"system": "BXF 1218L", "assay": "PD tumor cell line growth inhibition", "format": "cell-based", "details": "Bladder, read-out: % inhibition (cellular growth inhibition related to negative control)", "experimental": "as §1"}, "GXA MKN45": {"system": "GXA MKN45", "assay": "PD tumor cell line growth inhibition", "format": "cell-based", "details": "Homo sapiens, MKN-45, Stomach, read-out: % inhibition (cellular growth inhibition related to negative control)", "experimental": "as §1"}, "BXF T24": {"system": "BXF T24", "assay": "PD tumor cell line growth inhibition", "format": "cell-based", "details": "Bladder, read-out: % inhibition (cellular growth inhibition related to negative control)", "experimental": "as §1"}, "CXF RKO": {"system": "CXF RKO", "assay": "PD tumor cell line growth inhibition", "format": "cell-based", "details": "Colon, read-out: % inhibition (cellular growth inhibition related to negative control)", "experimental": "as §1"}, "OVXF 899L": {"system": "OVXF 899L", "assay": "PD tumor cell line growth inhibition", "format": "cell-based", "details": "Ovary, read-out: % inhibition (cellular growth inhibition related to negative control)", "experimental": "as §1"}, "LXFL 529L": {"system": "LXFL 529L", "assay": "PD tumor cell line growth inhibition", "format": "cell-based", "details": "Lung, EGFR overexpressed, read-out: % inhibition (cellular growth inhibition related to negative control)", "experimental": "as §1"}, "CXF Colo205": {"system": "CXF Colo205", "assay": "PD tumor cell line growth inhibition", "format": "cell-based", "details": "Homo sapiens, COLO 205, Colon, read-out: % inhibition (cellular growth inhibition related to negative control)", "experimental": "as §1"}, "PAXF 546L": {"system": "PAXF 546L", "assay": "PD tumor cell line growth inhibition", "format": "cell-based", "details": "Pancreas, read-out: % inhibition (cellular growth inhibition related to negative control)", "experimental": "as §1"}, "GXF 251L": {"system": "GXF 251L", "assay": "PD tumor cell line growth inhibition", "format": "cell-based", "details": "Stomach, EGFRdel-exon19 expressed, read-out: % inhibition (cellular growth inhibition related to negative control)", "experimental": "as §1"}, "RXF 486L": {"system": "RXF 486L", "assay": "PD tumor cell line growth inhibition", "format": "cell-based", "details": "Kidney, read-out: % inhibition (cellular growth inhibition related to negative control)", "experimental": "as §1"}, "MEXF 276L": {"system": "MEXF 276L", "assay": "PD tumor cell line growth inhibition", "format": "cell-based", "details": "Homo sapiens, MEXF276L, Melanoma, read-out: % inhibition (cellular growth inhibition related to negative control)", "experimental": "as §1"}, "EGFRwt": {"biological_target": "EGFRwt (Homo sapiens, UniProt P00533)", "sequence (P00533 25-1210)": "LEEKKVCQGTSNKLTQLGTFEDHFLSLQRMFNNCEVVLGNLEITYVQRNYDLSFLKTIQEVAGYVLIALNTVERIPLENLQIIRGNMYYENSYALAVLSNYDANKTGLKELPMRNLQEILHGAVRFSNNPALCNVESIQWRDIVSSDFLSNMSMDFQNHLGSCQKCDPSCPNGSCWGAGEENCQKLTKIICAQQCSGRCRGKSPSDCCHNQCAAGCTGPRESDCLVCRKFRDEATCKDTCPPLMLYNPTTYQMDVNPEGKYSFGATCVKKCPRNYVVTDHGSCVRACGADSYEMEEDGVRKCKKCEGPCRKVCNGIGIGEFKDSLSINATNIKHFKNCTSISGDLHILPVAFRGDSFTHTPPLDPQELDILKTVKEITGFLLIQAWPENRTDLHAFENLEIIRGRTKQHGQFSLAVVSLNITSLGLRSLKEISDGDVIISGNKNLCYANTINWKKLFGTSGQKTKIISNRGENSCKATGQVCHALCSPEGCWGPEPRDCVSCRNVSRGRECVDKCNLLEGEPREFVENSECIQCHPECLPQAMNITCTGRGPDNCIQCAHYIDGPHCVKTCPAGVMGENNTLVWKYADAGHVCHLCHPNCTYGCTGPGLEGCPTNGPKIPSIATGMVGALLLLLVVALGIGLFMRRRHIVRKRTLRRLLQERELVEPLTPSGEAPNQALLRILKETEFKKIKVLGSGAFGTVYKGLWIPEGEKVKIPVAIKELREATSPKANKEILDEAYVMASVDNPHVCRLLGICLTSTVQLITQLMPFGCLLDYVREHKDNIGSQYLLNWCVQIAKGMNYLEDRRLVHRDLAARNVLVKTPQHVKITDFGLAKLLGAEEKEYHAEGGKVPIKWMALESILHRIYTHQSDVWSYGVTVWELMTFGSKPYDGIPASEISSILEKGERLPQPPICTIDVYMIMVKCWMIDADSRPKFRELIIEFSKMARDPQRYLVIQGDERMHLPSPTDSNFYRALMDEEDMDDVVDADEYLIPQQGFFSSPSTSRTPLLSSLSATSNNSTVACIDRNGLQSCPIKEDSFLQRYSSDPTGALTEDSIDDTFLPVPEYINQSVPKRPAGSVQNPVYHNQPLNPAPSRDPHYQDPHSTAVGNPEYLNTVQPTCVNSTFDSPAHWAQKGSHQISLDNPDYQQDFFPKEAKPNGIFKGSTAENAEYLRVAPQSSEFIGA", "assay": "HTRF KinEASE-TK biochemical assay (TR-FRET), EGFRwt", "protocol": "as §2"}, "[1]": {"system": "patient-derived tumor cell panel", "assay": "Patient-derived tumor cell panel screening (Oncotest)", "format": "cell-based", "experimental": "as §1"}, "EGFRL858R": {"biological_target": "EGFRL858R (Homo sapiens, UniProt P00533, L858R)", "sequence (P00533 25-1210 L858R)": "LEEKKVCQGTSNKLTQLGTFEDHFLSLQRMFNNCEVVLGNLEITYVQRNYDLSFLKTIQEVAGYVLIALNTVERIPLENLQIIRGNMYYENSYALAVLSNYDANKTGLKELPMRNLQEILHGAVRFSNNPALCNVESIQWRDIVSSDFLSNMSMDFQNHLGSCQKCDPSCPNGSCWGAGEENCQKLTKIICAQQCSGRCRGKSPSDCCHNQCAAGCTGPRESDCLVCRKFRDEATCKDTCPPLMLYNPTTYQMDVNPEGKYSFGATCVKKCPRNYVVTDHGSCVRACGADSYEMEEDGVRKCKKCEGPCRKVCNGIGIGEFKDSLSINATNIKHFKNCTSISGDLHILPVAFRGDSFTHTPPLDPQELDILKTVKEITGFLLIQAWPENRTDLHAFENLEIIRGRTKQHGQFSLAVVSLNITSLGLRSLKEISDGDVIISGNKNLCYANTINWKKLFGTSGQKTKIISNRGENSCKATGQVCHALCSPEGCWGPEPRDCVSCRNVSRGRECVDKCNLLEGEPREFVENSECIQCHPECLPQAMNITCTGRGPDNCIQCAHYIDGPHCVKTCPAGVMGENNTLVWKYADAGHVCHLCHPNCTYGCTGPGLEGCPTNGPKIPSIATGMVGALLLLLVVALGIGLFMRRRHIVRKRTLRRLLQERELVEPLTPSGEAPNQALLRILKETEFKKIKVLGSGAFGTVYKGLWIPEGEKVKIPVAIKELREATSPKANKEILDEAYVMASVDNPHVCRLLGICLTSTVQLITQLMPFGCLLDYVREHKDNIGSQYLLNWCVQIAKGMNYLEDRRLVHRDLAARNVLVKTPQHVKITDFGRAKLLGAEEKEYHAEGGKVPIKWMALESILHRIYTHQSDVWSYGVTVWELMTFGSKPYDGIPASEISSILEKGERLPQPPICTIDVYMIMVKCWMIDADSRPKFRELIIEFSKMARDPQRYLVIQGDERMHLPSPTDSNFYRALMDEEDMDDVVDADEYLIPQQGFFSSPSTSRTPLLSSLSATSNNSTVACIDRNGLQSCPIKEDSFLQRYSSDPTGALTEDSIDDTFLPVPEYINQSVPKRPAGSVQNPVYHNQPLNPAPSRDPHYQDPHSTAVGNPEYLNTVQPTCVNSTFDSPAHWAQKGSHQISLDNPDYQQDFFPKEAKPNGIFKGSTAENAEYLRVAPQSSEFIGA", "assay": "HTRF KinEASE-TK biochemical assay (TR-FRET), EGFR-L858R", "protocol": "as §2"}},
  "data": [
    {"smiles": "C=CC(=O)Nc1ccc2ncc(NC(=O)Nc3ccccc3)nc2c1", "note": "[Compound 7h, N-(3-(3-phenylureido)quinoxalin-6-yl)acrylamide]", "values": [
      {"measurement": "IC50", "setting": "EGFRL858R/T790M", "value": "1680 ± 1510", "unit": "nM"},
      {"measurement": "inhibitory activity on EGFRL858R/T790M (in words)", "setting": "EGFRL858R/T790M; enzymatic in vitro determination", "value": "weak inhibition"},
      {"measurement": "inhibition at 10 µM", "setting": "CXF DIFI", "value": 77, "unit": "%"},
      {"measurement": "inhibition at 10 µM", "setting": "CXF HCT116", "value": 92, "unit": "%"},
      {"measurement": "inhibition at 10 µM", "setting": "CXF SW620", "value": 82, "unit": "%"},
      {"measurement": "inhibition at 10 µM", "setting": "LXFL H460", "value": 33, "unit": "%"},
      {"measurement": "inhibition at 10 µM", "setting": "PAXF 1657l", "value": 89, "unit": "%"},
      {"measurement": "inhibition at 10 µM", "setting": "CNXF A172", "value": 86, "unit": "%"},
      {"measurement": "inhibition at 10 µM", "setting": "SXF1301L", "value": 89, "unit": "%"},
      {"measurement": "inhibition at 10 µM", "setting": "LXFA 629L", "value": 76, "unit": "%"},
      {"measurement": "inhibition at 10 µM", "setting": "PRXF DU145", "value": 91, "unit": "%"},
      {"measurement": "inhibition at 10 µM", "setting": "RXF 786-O", "value": 80, "unit": "%"},
      {"measurement": "inhibition at 10 µM", "setting": "MAXF 401NL", "value": 72, "unit": "%"},
      {"measurement": "inhibition at 10 µM", "setting": "UXF 1138L", "value": 91, "unit": "%"},
      {"measurement": "inhibition at 10 µM", "setting": "MEXF 1539L", "value": 93, "unit": "%"},
      {"measurement": "inhibition at 10 µM", "setting": "LXFA NCI-H1975", "value": 68, "unit": "%"},
      {"measurement": "inhibition at 10 µM", "setting": "LIXF 575L", "value": 40, "unit": "%"},
      {"measurement": "inhibition at 10 µM", "setting": "LXFA PC9", "value": 75, "unit": "%"},
      {"measurement": "inhibition at 10 µM", "setting": "MAXF MDA231", "value": 67, "unit": "%"},
      {"measurement": "inhibition at 10 µM", "setting": "MAXF MCF7", "value": 76, "unit": "%"},
      {"measurement": "inhibition at 10 µM", "setting": "MEXF 1737l", "value": 15, "unit": "%"},
      {"measurement": "inhibition at 10 µM", "setting": "BXF 1218L", "value": 84, "unit": "%"},
      {"measurement": "inhibition at 10 µM", "setting": "GXA MKN45", "value": 8, "unit": "%"},
      {"measurement": "inhibition at 10 µM", "setting": "BXF T24", "value": 76, "unit": "%"},
      {"measurement": "inhibition at 10 µM", "setting": "CXF RKO", "value": 82, "unit": "%"},
      {"measurement": "inhibition at 10 µM", "setting": "OVXF 899L", "value": 87, "unit": "%"},
      {"measurement": "inhibition at 10 µM", "setting": "LXFL 529L", "value": 74, "unit": "%"},
      {"measurement": "inhibition at 10 µM", "setting": "CXF Colo205", "value": 56, "unit": "%"},
      {"measurement": "inhibition at 10 µM", "setting": "PAXF 546L", "value": 58, "unit": "%"},
      {"measurement": "inhibition at 10 µM", "setting": "GXF 251L", "value": 55, "unit": "%"},
      {"measurement": "inhibition at 10 µM", "setting": "RXF 486L", "value": 86, "unit": "%"},
      {"measurement": "inhibition at 10 µM", "setting": "MEXF 276L", "value": 88, "unit": "%"},
      {"measurement": "IC50", "setting": "EGFRwt", "value": "25 ± 4", "unit": "nM"},
      {"measurement": "inhibition at 10 µM", "setting": "[1]; 10 μM, GXF 251L, CXF DiFi, LXFA PC9, LXFL 529L and LXFA NCI-H1975 cell lines, read-out: growth inhibition effect", "value": "55 to 77", "unit": "%"},
      {"measurement": "tumor cell lines' growth inhibition / cytotoxic activity (in words)", "setting": "[1]; single screening concentration of 10 μM", "value": "important cytotoxic activity"},
      {"measurement": "IC50", "setting": "EGFRL858R", "value": "18 ± 3", "unit": "nM"}
    ]}
  ]
}
